In PubChem BioAssay AID1259411 (Chemical Carcinogenesis Research Information System (CCRIS), 2018):
The source made the active and inactive calls. How the calls were made is not given here.

Test system: rodent carcinogenicity bioassays, tumor incidence
Test: CCRIS carcinogenicity studies
How it was run: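 NCI-built, expert-reviewed records of carcinogenicity and related test outcomes (mutagenicity, tumor promotion/inhibition) compiled from published and report sources, historical span 1985-2011, not updated.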

Measured: carcinogen call

C=CC(=O)OCC
active: Species: MOUSE, Strain/Sex: B6C3F1/FEMALE, Route: GAVAGE, Dose: 0, 100, 200 MG/KG IN CORN OIL FOR 103 WK, Dose: 0, 100, 200 MG/KG IN CORN OIL FOR 103 WK, Tumor Site: Type of Lesion: FORESTOMACH: SQUAMOUS CELL PAPILLOMA OR CARCINOMA active; positive | Species: MOUSE, Strain/Sex: B6C3F1/MALE, Route: GAVAGE, Dose: 0, 100, 200 MG/KG IN CORN OIL FOR 103 WK, Dose: 0, 100, 200 MG/KG IN CORN OIL FOR 103 WK, Tumor Site: Type of Lesion: FORESTOMACH: SQUAMOUS CELL PAPILLOMA, SQUAMOUS CELL CARCINOMA active; positive | Species: RAT, Strain/Sex: F344/FEMALE, Route: GAVAGE, Dose: 0, 100, 200 MG/KG IN CORN OIL FOR 103 WK, Dose: 0, 100, 200 MG/KG IN CORN OIL FOR 103 WK, Tumor Site: Type of Lesion: FORESTOMACH: SQUAMOUS CELL PAPILLOMA, SQUAMOUS CELL PAPILLOMA OR CARCINOMA active; positive | Species: RAT, Strain/Sex: F344/MALE, Route: GAVAGE, Dose: 0, 100, 200 MG/KG IN CORN OIL FOR 103 WK, Dose: 0, 100, 200 MG/KG IN CORN OIL FOR 103 WK, Tumor Site: Type of Lesion: FORESTOMACH: SQUAMOUS CELL PAPILLOMA, SQUAMOUS CELL CARCINOMA active; positive
inactive: Species: MOUSE, Strain/Sex: B6C3F1/FEMALE, Route: INHALATION, Dose: 0, 5 PPM 6 HR/D 5 D/WK FOR 24 MO (STUDY DURATION: 24 MO) inactive; negative | Species: MOUSE, Strain/Sex: B6C3F1/FEMALE, Route: INHALATION, Dose: 0, 25, 75 PPM 6 HR/D 5 D/WK FOR 27 MO (STUDY DURATION: 27 MO), Dose: 0, 25, 75 PPM 6 HR/D 5 D/WK FOR 27 MO (STUDY DURATION: 27 MO) inactive; negative | Species: MOUSE, Strain/Sex: B6C3F1/FEMALE, Route: INHALATION, Dose: 0, 225 PPM 6 HR/D 5 D/WK FOR 6 MO (STUDY DURATION: 27 MO) inactive; negative | Species: MOUSE, Strain/Sex: B6C3F1/MALE, Route: INHALATION, Dose: 0, 5 PPM 6 HR/D 5 D/WK FOR 24 MO (STUDY DURATION: 24 MO) inactive; negative | Species: MOUSE, Strain/Sex: B6C3F1/MALE, Route: INHALATION, Dose: 0, 25, 75 PPM 6 HR/D 5 D/WK FOR 27 MO (STUDY DURATION: 27 MO), Dose: 0, 25, 75 PPM 6 HR/D 5 D/WK FOR 27 MO (STUDY DURATION: 27 MO) inactive; negative | Species: MOUSE, Strain/Sex: B6C3F1/MALE, Route: INHALATION, Dose: 0, 225 PPM 6 HR/D 5 D/WK FOR 6 MO (STUDY DURATION: 27 MO) inactive; negative | Species: MOUSE, Strain/Sex: C3H/MALE, Route: DERMAL, Dose: 0, 23 MG IN 25 µL ACETONE 3/WK FOR LIFESPAN (STUDY DURATION: LIFESPAN) inactive; negative | Species: MOUSE, Strain/Sex: TGAC/FEMALE, Route: DERMAL, Dose: 0, 60, 300, 600 UMOL IN 200 µL ACETONE 3/WK FOR 20 WK (STUDY DURATION: 20 WK), Dose: 0, 60, 300, 600 UMOL IN 200 µL ACETONE 3/WK FOR 20 WK (STUDY DURATION: 20 WK) inactive; negative | Species: RAT, Strain/Sex: F344/FEMALE, Route: INHALATION, Dose: 0, 5 PPM 6 HR/D 5 D/WK FOR 24 MO (STUDY DURATION: 24 MO) inactive; negative | Species: RAT, Strain/Sex: F344/FEMALE, Route: INHALATION, Dose: 0, 25, 75 PPM 6 HR/D 5 D/WK FOR 27 MO (STUDY DURATION: 27 MO), Dose: 0, 25, 75 PPM 6 HR/D 5 D/WK FOR 27 MO (STUDY DURATION: 27 MO) inactive; negative | Species: RAT, Strain/Sex: F344/FEMALE, Route: INHALATION, Dose: 0, 225 PPM 6 HR/D 5 D/WK FOR 6 MO (STUDY DURATION: 27 MO) inactive; negative | Species: RAT, Strain/Sex: F344/MALE, Route: INHALATION, Dose: 0, 5 PPM 6 HR/D 5 D/WK FOR 24 MO (STUDY DURATION: 24 MO) inactive; negative | Species: RAT, Strain/Sex: F344/MALE, Route: INHALATION, Dose: 0, 25, 75 PPM 6 HR/D 5 D/WK FOR 27 MO (STUDY DURATION: 27 MO), Dose: 0, 25, 75 PPM 6 HR/D 5 D/WK FOR 27 MO (STUDY DURATION: 27 MO) inactive; negative | Species: RAT, Strain/Sex: F344/MALE, Route: INHALATION, Dose: 0, 225 PPM 6 HR/D 5 D/WK FOR 6 MO (STUDY DURATION: 27 MO) inactive; negative

O=[N+]([O-])O
inactive: Species: RAT, Strain/Sex: F344/MALE,FEMALE, Route: ORAL, Dose: 2.5, 5% IN DRINKING WATER FOR 2 YR inactive; negative

O=C1c2ccccc2C(=O)C1c1ccc2ccccc2n1
active: Species: RAT, Strain/Sex: F344/FEMALE, Route: ORAL, Dose: 0, 500, 1700, 5000 PPM IN DIET FOR 106 WK (STUDY DURATION: 111 WK), Dose: 0, 500, 1700, 5000 PPM IN DIET FOR 106 WK (STUDY DURATION: 111 WK), Tumor Site: Type of Lesion: LIVER: HEPATOCELLULAR ADENOMA OR CARCINOMA active; positive | Species: RAT, Strain/Sex: F344/MALE, Route: ORAL, Dose: 0, 500, 1700, 5000 PPM IN DIET FOR 105 WK (STUDY DURATION: 110 WK), Dose: 0, 500, 1700, 5000 PPM IN DIET FOR 105 WK (STUDY DURATION: 110 WK), Tumor Site: Type of Lesion: KIDNEY(RENAL TUBULE): ADENOMA OR CARCINOMA, LIVER: HEPATOCELLULAR ADENOMA, ORAL CAVITY: SQUAMOUS CELL PAPILLOMA, SQUAMOU, Tumor Site: Type of Lesion: KIDNEY(RENAL TUBULE): ADENOMA OR CARCINOMA, LIVER: HEPATOCELLULAR ADENOMA, ORAL CAVITY: SQUAMOUS CELL PAPILLOMA, SQUAMOU active; positive

ClCCOCCCl
active: Species: MOUSE, Strain/Sex: B6AKF1/MALE, Route: GAVAGE/ORAL, Dose: 100 MG/KG FROM DAY 7-28 OF LIFE THEN 300 MG/KG IN DIET, Tumor Site: Type of Lesion: LIVER: HEPATOMA active; positive | Species: MOUSE, Strain/Sex: B6C3F1/MALE,FEMALE, Route: GAVAGE/ORAL, Dose: 100 MG/KG FROM DAY 7-28 OF LIFE THEN 300 MG/KG IN DIET, Tumor Site: Type of Lesion: LIVER: HEPATOMA active; positive
inactive: Species: RAT, Strain/Sex: SPRAGUE-DAWLEY/MALE, Route: SUBCUTANEOUS, Dose: 0, 13.1, 4.36 UMOL IN DMSO 1/WK FOR 2 YR (STUDY DURATION: 2 YR), Dose: 0, 13.1, 4.36 UMOL IN DMSO 1/WK FOR 2 YR (STUDY DURATION: 2 YR) inactive; negative | Species: RAT, Strain/Sex: STRAIN-CD/MALE,FEMALE, Route: GAVAGE, Dose: 25, 50 MG/KG IN STEROID SUSPENDING VEHICLE 2/WK FOR 78 WK inactive; negative

CCOCn1c(-c2ccc(Cl)cc2)c(C#N)c(Br)c1C(F)(F)F
inactive: Species: Mouse, Strain/Sex: CD-1/Female (65/group), Route: Oral, Dose: 0, 20, 120, 240 ppm in diet for 80 wk, Dose: 0, 20, 120, 240 ppm in diet for 80 wk inactive; negative (study details not given in source; purity 94.5%) | Species: Mouse, Strain/Sex: CD-1/Male (65/group), Route: Oral, Dose: 0, 20, 120, 240 ppm in diet for 80 wk, Dose: 0, 20, 120, 240 ppm in diet for 80 wk inactive; negative (study details not given in source; purity 94.5%) | Species: Rat, Strain/Sex: Sprague-Dawley/Female (65/group), Route: Oral, Dose: 0, 60, 300, 600 ppm in diet for up to 104 wk, Dose: 0, 60, 300, 600 ppm in diet for up to 104 wk inactive; negative (study details not given in source; purity 94.5%) | Species: Rat, Strain/Sex: Sprague-Dawley/Male (65/group), Route: Oral, Dose: 0, 60, 300, 600 ppm in diet for up to 104 wk, Dose: 0, 60, 300, 600 ppm in diet for up to 104 wk inactive; negative (study details not given in source; purity 94.5%)

O=C(O)c1ccccc1O
inactive: Species: Mouse, Strain/Sex: SKH-1/Female (18/Group), Route: Dermal, Dose: 0, 2, 4% administered as topical cream (pH 4) , 5 d/wk, 40 wk, animals held an additional 12 wk for study duration of 1, Tumor Site: Type of Lesion: Skin: Carcinoma in situ, squamous cell carcinoma, basal cell carcinoma inactive; negative. when synthetic solar light (ssl) at 0.3 and 0.6 the minimal erythema d | Species: Mouse, Strain/Sex: SKH-1/Male (18/Group), Route: Dermal, Dose: 0, 2, 4% administered as topical cream (pH 4) , 5 d/wk, 40 wk, animals held an additional 12 wk for study duration of 1, Tumor Site: Type of Lesion: Skin: Carcinoma in situ, squamous cell carcinoma, basal cell carcinoma inactive; negative. when synthetic solar light (ssl) at 0.3 and 0.6 the minimal erythema d

O=CC(=O)C[C@H](O)[C@H](O)CO
inactive: Species: MOUSE, Strain/Sex: CD-1/FEMALE, Route: DERMAL, Dose: 0, 20 UMOL/0.1 ML DMSO 2/WK FOR 5 WK FOLLOWED 1 WK LATER BY 0.1 ML ACETONE 2/WK FOR 47 WK (STUDY DURATION: 52 WK) inactive; negative
